Test results from publication PMC12616683, “In Vivo Atlas of Neuroprotective Cyclic Dipeptides Derived from Food Gelatin Using Peptidomics and Feature-Based Molecular Networking” (Journal of Agricultural and Food Chemistry, 2025).
Peptide text beside a SMILES is read from it.

Assay: FBMN analysis of short peptides in small intestine contents and serum after oral DHG
Details: for Peptide signal (feature intensity) in the small intestine, 30 min / Peptide signal (feature intensity) in the small intestine, 60 min / Peptide signal (feature intensity) in the small intestine, 120 min / Peptide signal (feature intensity) in the small intestine, 240 min: small intestine contents, C57 mice, FBMN feature intensity, peptides smaller than 690 Da; for Peptide signal (feature intensity) in the small intestine, 30 min: 30 min after oral DHG; for Peptide signal (feature intensity) in the small intestine, 60 min: 60 min after oral DHG; for Peptide signal (feature intensity) in the small intestine, 120 min: 120 min after oral DHG; for Peptide signal (feature intensity) in the small intestine, 240 min: 240 min after oral DHG

| Peptide signal (feature intensity) in the small intestine, 30 min | Peptide signal (feature intensity) in the small intestine, 60 min | Peptide signal (feature intensity) in the small intestine, 120 min | Peptide signal (feature intensity) in the small intestine, 240 min | time detected in serum (FBMN) (serum, time points 0.5-4 h after oral DHG) [h] | Structure (SMILES) |
| --- | --- | --- | --- | --- | --- |
| 8.57E+06 | 2.01E+06 | 0.00E+00 | 0.00E+00 | – | Nc1nc2c(ncn2[C@@H]2O[C@H](CO)[C@@H](O)[C@H]2O)c(=O)[nH]1 [Guanosine] |
| 1.87E+07 | 0.00E+00 | 2.72E+07 | 2.33E+07 | – | CC[C@H](C)[C@H](NC(=O)[C@@H](N)Cc1cnc[nH]1)C(=O)O [His-Ile] (H-His-Ile-OH) |
| 3.18E+06 | 3.36E+06 | 0.00E+00 | 0.00E+00 | – | CC[C@H](C)[C@H](N)C(=O)N[C@@H](CC(C)C)C(=O)O [Ile-Leu] (H-Ile-Leu-OH) |
| 2.73E+05 | 1.52E+05 | 4.18E+05 | 1.30E+06 | – | CC(C)[C@H](NC(=O)[C@@H](N)CCC(=O)O)C(=O)N[C@@H](Cc1ccccc1)C(=O)O [Glu-Val-Phe] (H-Glu-Val-Phe-OH) |
| 2.96E+06 | 1.48E+06 | 0.00E+00 | 0.00E+00 | – | CC(C)[C@H](NC(=O)[C@@H](N)Cc1ccc(O)cc1)C(=O)O [Tyr-Val] (H-Tyr-Val-OH) |
| 4.66E+05 | 4.22E+05 | 6.61E+05 | 1.64E+06 | – | CC(C)[C@H](N)C(=O)N[C@@H](Cc1c[nH]c2ccccc12)C(=O)O [Val-Trp] (H-Val-Trp-OH) |
| 0.00E+00 | 4.20E+05 | 0.00E+00 | 9.49E+05 | – | CC(C)C[C@H](N)C(=O)N[C@@H](CCC(=O)O)C(=O)N[C@@H](CCCCN)C(=O)O [Leu-Glu-Lys] (H-Leu-Glu-Lys-OH) |
| 0.00E+00 | 3.40E+05 | 8.97E+05 | 2.22E+06 | – | CC(C)C[C@H](N)C(=O)N[C@H](C(=O)N[C@@H](CCCCN)C(=O)O)C(C)C [Leu-Val-Lys] (H-Leu-Val-Lys-OH) |
| 0.00E+00 | 3.96E+06 | 0.00E+00 | 1.66E+07 | ≥ 4 | N[C@@H](CCC(=O)O)C(=O)N[C@@H](Cc1ccccc1)C(=O)O [Glu-Phe] |
| 9.57E+05 | 9.73E+05 | 1.22E+06 | 0.00E+00 | – | O=C(O)C(Cc1ccccc1)NC(=O)C1CCCN1 (stereo not drawn) [Pro-Phe] (H-Pro-Phe-OH; configuration not given here) |
| 3.30E+06 | 7.38E+06 | 0.00E+00 | 0.00E+00 | – | CSCC[C@H](NC(=O)[C@@H](N)C(C)C)C(=O)O [Val-Met] (H-Val-Met-OH) |
| 0.00E+00 | 0.00E+00 | 0.00E+00 | 1.26E+07 | – | N[C@@H](Cc1c[nH]c2ccccc12)C(=O)N[C@@H](CCC(=O)O)C(=O)O [Trp-Glu] (H-Trp-Glu-OH) |
| 4.22E+06 | 7.59E+06 | 0.00E+00 | 0.00E+00 | – | CC(C)CC(N)C(=O)NC(C(=O)O)C(C)C (stereo not drawn) [Leu-Val] (H-Leu-Val-OH; configuration not given here) |
| 0.00E+00 | 4.25E+05 | 0.00E+00 | 8.08E+05 | – | CC(C)C[C@H](NC(=O)[C@@H](N)Cc1ccccc1)C(=O)N[C@@H](CCCCN)C(=O)O [Phe-Leu-Lys] (H-Phe-Leu-Lys-OH) |
| 9.23E+06 | 0.00E+00 | 5.32E+06 | 2.54E+06 | – | CC(C)CC1NC(=O)C2CC(O)CN2C1=O [cyclo(L-Leu-L-Hyp)] |
| 7.88E+06 | 7.70E+06 | 0.00E+00 | 0.00E+00 | – | CC(C)C[C@H](N)C(=O)N[C@@H](CCC(=O)O)C(=O)O [Leu-Glu] (H-Leu-Glu-OH) |
| 6.56E+06 | 7.13E+06 | 0.00E+00 | 0.00E+00 | – | CCC(C)C(N)C(=O)NC(C(=O)O)C(C)O (stereo not drawn) [Ile-Thr] (H-Ile-Thr-OH; configuration not given here) |
| 1.73E+05 | 0.00E+00 | 2.05E+05 | 1.49E+05 | – | CCCC[C@H](NC(=O)[C@H](C)N)C(=O)O [L-Alanyl-L-norleucine] (HELM PEPTIDE1{A.[Nle]}$$$$V2.0) |
| 1.19E+07 | 0.00E+00 | 1.15E+07 | 6.80E+06 | – | O=C1N[C@@H](Cc2ccccc2)C(=O)N2C[C@@H](O)C[C@@H]12 [cyclo(L-Phe-L-4-Hyp)] |

| Structure (SMILES) | Peptide signal (feature intensity) in the small intestine, 30 min | Peptide signal (feature intensity) in the small intestine, 60 min | Peptide signal (feature intensity) in the small intestine, 120 min | Peptide signal (feature intensity) in the small intestine, 240 min | time detected in serum (FBMN) (serum, time points 0.5-4 h after oral DHG) [h] |
| --- | --- | --- | --- | --- | --- |
| N[C@@H](CO)C(=O)N[C@@H](Cc1ccccc1)C(=O)O [Ser-Phe] | 0.00E+00 | 1.38E+06 | 0.00E+00 | 4.01E+05 | – |
| NC(Cc1ccccc1)C(=O)N1CCCC1C(=O)O (stereo not drawn) [Phe-Pro] (H-Phe-Pro-OH; configuration not given here) | 1.25E+06 | 7.11E+05 | 1.63E+06 | 3.02E+06 | – |
